Results reported in ChEMBL document CHEMBL1201862, “PubChem BioAssay data set” (2004).
Active and inactive are the calls of the source.

What was measured:
[1] = biological target: T1, Short transient receptor potential channel 4 (Mus musculus, UniProt Q9QUQ5); test: calcium entry via TRPC4 opening agents – cell-based, HEK293 TRPC4/mu-opioid, Fluo-4 calcium, dose response (AID 434937); format: functional
T1 sequence (Q9QUQ5 whole entry): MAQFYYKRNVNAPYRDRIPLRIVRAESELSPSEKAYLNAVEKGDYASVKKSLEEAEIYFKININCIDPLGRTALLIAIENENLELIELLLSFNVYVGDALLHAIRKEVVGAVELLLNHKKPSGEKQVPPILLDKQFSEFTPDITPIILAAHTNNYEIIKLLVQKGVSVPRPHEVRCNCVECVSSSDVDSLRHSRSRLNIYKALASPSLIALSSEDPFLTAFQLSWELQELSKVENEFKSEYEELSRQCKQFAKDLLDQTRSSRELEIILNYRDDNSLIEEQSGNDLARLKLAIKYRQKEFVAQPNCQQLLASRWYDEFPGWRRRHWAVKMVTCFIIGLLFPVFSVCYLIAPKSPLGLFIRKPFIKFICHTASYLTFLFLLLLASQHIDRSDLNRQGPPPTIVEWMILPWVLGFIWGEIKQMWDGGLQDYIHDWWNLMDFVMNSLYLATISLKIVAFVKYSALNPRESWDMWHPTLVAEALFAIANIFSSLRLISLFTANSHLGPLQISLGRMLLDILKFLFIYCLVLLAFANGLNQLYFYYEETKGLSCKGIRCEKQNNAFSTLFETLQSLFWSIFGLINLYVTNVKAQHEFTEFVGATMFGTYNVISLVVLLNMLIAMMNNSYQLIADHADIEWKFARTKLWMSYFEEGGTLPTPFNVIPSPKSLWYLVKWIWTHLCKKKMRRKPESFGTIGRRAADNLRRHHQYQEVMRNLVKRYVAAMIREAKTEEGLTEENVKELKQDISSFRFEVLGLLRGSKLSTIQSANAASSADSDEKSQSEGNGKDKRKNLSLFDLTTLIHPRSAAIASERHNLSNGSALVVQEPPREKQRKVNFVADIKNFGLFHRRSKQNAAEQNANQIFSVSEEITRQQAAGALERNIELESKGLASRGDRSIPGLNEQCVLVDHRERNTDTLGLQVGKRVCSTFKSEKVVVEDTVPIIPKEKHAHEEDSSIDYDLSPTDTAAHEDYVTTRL

[2] = biological target: DNA dC->dU-editing enzyme APOBEC-3G (Homo sapiens, UniProt Q9HC16); format: functional;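 also: Dose-response counterscreen measuring inhibition of APOBEC3G DNA deaminase activity, run while confirming APOBEC3A inhibitors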
Sequence of DNA dC->dU-editing enzyme APOBEC-3G (Q9HC16 whole entry): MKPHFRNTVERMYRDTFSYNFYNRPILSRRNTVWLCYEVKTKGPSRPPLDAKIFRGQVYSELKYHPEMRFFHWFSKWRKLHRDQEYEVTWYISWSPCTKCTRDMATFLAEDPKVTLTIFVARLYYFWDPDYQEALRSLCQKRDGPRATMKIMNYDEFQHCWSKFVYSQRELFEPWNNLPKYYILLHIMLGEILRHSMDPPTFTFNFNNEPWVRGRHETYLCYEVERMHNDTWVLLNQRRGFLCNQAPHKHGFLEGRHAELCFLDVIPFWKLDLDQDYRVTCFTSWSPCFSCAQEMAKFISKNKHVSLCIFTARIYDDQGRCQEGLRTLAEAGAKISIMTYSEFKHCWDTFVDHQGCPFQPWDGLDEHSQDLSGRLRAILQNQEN

[3] = biological target: Eukaryotic translation initiation factor 4H (Homo sapiens, UniProt Q15056); test: eIF4H binding inhibition – biochemical, uHTS, fluorescence polarization, translation initiation inhibitor project, primary screen (AID 2012)
[4] = biological target: Polyadenylate-binding protein 1 (Homo sapiens, UniProt P11940); test: blockers of PABP interaction with poly(A) – biochemical, fluorescence polarization, […] (AID 2014)
Sequence of Polyadenylate-binding protein 1 (P11940 whole entry): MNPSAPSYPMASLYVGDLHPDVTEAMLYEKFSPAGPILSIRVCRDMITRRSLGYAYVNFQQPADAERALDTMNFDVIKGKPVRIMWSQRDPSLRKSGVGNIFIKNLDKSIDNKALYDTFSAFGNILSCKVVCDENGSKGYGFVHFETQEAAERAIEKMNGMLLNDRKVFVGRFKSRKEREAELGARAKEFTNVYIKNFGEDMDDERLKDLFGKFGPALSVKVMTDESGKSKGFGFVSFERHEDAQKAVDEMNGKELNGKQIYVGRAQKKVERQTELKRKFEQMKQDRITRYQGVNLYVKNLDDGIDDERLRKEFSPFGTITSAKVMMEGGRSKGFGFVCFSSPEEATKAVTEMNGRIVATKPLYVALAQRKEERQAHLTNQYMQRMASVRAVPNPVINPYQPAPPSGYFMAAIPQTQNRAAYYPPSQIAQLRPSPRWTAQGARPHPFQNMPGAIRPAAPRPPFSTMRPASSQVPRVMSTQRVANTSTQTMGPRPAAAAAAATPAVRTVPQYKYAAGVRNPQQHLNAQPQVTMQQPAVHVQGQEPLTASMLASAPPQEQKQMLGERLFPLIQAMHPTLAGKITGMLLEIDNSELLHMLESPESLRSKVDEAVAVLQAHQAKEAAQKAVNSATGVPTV

[5] = biological target: DNA dC->dU-editing enzyme APOBEC-3A (Homo sapiens, UniProt P31941); test: Dose Response confirmation of small molecule APOBEC3A DNA Deaminase Inhibitors via a fluorescence-based single-stranded DNA deaminase assay. [Related pubchem assays (depositor defined):AID493011, AID493024]; format: functional
Sequence of DNA dC->dU-editing enzyme APOBEC-3A (P31941 whole entry): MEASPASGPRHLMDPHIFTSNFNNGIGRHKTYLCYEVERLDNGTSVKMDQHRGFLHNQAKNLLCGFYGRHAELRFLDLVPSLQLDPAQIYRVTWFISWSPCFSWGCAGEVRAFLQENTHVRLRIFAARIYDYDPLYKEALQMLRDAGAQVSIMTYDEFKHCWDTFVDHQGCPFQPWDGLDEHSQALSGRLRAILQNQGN

Large T antigen = Large T antigen (Simian virus 40, UniProt P03070); format: functional, Betapolyomavirus macacae;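 also: Confirmatory-stage PubChem screen for compounds that inhibit SV40 T antigen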
Sequence of Large T antigen (P03070 whole entry): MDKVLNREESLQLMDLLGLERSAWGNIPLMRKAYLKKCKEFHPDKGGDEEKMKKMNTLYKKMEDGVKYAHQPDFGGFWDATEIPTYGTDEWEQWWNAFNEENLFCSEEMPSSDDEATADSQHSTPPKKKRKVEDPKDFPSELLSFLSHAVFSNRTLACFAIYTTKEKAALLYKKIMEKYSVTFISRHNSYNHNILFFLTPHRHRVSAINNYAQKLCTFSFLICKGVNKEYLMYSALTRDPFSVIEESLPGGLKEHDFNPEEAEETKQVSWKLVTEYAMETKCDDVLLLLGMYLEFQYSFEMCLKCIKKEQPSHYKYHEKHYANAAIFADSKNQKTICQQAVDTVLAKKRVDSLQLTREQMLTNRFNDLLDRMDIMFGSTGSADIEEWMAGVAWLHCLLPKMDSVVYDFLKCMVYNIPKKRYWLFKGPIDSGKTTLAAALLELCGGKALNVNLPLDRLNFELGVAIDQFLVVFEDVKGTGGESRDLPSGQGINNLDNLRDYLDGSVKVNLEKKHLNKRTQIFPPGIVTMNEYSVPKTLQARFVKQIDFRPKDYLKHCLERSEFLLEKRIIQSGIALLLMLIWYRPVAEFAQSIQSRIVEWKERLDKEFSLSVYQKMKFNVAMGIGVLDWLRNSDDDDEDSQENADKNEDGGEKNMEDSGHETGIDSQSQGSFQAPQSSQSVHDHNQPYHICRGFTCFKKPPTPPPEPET

[6] = biological target: Luciferin 4-monooxygenase (Photinus pyralis, UniProt P08659); test: inhibition of purified Photinus pyralis luciferase – biochemical, luminescence, dose response (AID 1891)
Sequence of Luciferin 4-monooxygenase (P08659 whole entry): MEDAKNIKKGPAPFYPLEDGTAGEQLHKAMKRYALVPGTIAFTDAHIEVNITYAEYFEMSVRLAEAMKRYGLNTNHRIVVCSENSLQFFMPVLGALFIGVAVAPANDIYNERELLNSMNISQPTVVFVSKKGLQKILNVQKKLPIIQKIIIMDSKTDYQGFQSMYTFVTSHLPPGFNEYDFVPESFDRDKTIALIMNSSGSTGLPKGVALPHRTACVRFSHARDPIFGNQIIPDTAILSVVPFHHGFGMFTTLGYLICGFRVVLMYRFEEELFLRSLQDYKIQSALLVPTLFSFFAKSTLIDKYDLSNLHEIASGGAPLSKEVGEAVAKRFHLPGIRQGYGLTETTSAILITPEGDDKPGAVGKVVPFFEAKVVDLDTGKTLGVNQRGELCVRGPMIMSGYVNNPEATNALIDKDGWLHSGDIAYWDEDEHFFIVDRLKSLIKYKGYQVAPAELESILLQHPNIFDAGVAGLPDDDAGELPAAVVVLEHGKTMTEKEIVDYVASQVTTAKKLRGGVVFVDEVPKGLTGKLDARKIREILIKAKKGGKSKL

[7] = Luminescence Cell-Based Dose Confirmation HTS to Identify Inhibitors of Platelet Dense Granule Release. [Related pubchem assays: 1663 (Primary HTS), 1678 (Summary of Project)]; format: functional
cells = format: functional
[8] = biological target: T1, Short transient receptor potential channel 4; test: block of DAMGO-driven TRPC4 calcium entry – cell-based, HEK293 TRPC4/mu-opioid, Fluo-4 calcium, dose response (AID 434942); format: functional;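 also: potency of inhibitors blocking the TRPC4 calcium response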
[9] = biological target: T2, Carboxy-terminal domain RNA polymerase II polypeptide A small phosphatase 1 (Homo sapiens, UniProt Q9GZU7); test: CTDSP1 inhibitors, concentration-response, biochemical, absorbance readout, ultra-high-throughput screen actives (AID 540297); format: functional
T2 sequence (Q9GZU7 whole entry): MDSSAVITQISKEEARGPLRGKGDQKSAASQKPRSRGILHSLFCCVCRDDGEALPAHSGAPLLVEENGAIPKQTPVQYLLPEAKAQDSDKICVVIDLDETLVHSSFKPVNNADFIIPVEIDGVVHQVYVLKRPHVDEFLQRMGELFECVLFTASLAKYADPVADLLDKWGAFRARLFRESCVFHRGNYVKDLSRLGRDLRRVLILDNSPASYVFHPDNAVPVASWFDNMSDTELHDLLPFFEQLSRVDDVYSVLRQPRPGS

Coagulation factor XII = biological target: T3, Coagulation factor XII (Homo sapiens, UniProt P00748); format: functional;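 also: activated factor XIIa alpha cleaving a fluorogenic AMC peptide substrate; inhibitor potency from loss of enzyme activity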
T3 sequence (P00748 whole entry): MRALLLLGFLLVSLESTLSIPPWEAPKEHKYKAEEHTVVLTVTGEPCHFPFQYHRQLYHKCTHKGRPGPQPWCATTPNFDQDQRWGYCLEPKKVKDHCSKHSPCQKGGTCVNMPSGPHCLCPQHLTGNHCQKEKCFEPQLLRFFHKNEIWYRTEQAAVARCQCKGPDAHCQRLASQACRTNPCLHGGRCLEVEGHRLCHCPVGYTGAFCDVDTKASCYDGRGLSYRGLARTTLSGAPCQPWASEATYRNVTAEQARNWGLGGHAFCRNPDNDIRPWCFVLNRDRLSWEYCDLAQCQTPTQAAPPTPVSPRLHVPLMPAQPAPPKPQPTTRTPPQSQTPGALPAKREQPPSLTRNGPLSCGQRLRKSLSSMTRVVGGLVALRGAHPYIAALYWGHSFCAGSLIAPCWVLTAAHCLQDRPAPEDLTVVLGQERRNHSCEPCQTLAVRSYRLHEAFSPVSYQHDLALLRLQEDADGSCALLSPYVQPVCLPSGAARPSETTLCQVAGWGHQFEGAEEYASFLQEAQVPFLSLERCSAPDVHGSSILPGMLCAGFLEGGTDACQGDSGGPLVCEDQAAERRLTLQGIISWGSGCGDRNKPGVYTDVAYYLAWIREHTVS

[10] = viability of PTEN-deleted HCT116 cells – cell-based, HCT116 PTEN knockout, dose response (AID 1047); format: functional;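 also: HCT116 colon tumor cells with PTEN knocked out; cells exposed to compound for 60 hours before readout; potency for loss of cell viability measured by luminescence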
Genome polyprotein = Genome polyprotein (dengue virus type 2, UniProt P29990); test: flavivirus cap methylation enzyme inhibition – biochemical, confirmation dose response, primary screen (AID 588689); format: functional
Sequence of Genome polyprotein (P29990 2492-3391 limits assumed): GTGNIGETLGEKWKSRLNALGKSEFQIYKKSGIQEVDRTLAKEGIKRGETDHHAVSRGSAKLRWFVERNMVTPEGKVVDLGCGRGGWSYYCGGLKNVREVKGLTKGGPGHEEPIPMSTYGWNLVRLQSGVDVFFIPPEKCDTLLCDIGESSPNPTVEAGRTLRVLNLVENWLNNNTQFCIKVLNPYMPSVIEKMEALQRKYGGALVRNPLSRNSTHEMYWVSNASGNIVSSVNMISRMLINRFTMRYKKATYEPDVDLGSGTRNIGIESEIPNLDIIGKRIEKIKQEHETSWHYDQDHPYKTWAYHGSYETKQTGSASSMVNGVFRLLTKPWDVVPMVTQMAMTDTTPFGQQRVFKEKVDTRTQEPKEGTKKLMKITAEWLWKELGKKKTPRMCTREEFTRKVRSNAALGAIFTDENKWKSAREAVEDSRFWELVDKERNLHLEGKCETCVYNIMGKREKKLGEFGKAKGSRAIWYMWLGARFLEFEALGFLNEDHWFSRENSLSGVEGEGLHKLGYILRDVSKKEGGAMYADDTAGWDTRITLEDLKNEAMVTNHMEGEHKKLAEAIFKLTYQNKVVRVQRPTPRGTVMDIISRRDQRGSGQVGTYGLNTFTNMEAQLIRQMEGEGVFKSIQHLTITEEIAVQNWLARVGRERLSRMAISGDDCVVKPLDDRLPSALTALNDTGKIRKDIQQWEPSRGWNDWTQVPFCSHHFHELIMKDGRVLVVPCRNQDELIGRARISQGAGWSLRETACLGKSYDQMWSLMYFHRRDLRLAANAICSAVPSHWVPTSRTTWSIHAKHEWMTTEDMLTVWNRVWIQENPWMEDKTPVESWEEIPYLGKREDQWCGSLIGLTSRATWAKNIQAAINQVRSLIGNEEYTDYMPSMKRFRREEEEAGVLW

[11] = non-specific 3'UTR reporter inhibition in Clone20-Shn3RL – cell-based, Renilla luciferase, cherry-picked, counter-screen for Shn3 inhibitor project, dose response (AID 624133); format: functional
[12] = viability of HCT116 lacking mutant beta-catenin – cell-based, human colon tumor, dose response (AID 1045); format: functional;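 also: HCT116 colon tumor cells with beta catenin knocked out; cells exposed to compound for 60 hours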
[13] = reduction of Shn3 3'UTR-driven luciferase in osteoblasts – cell-based, Clone20 osteoblasts, firefly luciferase, cherry-picked, dose response (AID 624132); format: functional;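 also: firefly luciferase luminescence from reporter carrying the Shn3 3'UTR in osteoblasts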
Vero = test: cells; format: functional; conditions: Chlorocebus sabaeus
[14] = biological target: T4, Replicative DNA helicase DnaB (Mycobacterium tuberculosis, UniProt P9WMR3); test: DnaB intein splicing inhibitors, dose response, biochemical, cell-free fluorescence (AID 449749); format: functional
T4 sequence (P9WMR3 whole entry): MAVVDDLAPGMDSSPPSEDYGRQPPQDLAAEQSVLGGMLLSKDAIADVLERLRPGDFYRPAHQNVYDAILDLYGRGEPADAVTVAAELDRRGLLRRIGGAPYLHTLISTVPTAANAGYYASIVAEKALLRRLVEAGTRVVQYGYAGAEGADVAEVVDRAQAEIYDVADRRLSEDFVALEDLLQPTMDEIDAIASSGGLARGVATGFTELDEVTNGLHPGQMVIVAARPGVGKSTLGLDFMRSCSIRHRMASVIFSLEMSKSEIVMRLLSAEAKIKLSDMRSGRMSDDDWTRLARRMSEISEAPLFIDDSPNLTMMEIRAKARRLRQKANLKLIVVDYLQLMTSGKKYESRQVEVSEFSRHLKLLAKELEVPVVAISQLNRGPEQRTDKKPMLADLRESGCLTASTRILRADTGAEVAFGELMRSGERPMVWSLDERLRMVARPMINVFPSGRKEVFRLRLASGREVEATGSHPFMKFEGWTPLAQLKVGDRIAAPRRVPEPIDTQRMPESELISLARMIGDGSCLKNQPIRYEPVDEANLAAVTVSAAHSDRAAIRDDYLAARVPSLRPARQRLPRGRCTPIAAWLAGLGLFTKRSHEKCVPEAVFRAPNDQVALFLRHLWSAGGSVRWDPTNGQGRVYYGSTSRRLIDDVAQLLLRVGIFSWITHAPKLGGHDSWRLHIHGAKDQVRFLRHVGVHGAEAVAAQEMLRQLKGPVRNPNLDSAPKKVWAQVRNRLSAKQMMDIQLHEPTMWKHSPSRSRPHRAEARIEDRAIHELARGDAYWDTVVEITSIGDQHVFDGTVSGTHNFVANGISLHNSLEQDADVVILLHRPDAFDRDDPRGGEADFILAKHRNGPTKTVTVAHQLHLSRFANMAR

[15] = microbe, parasite or virus in culture; format: functional; conditions: Mycobacterium tuberculosis
Protein RecA = biological target: T5, Protein RecA (Mycobacterium tuberculosis, UniProt P9WHJ3); test: Fluorescence Cell-Free Homogeneous Dose Retest to Identify Inhibitors of RecA-Intein Splicing Activity. [Related pubchem assays (depositor defined):AID2097, AID2223, AID489010, AID492950]; format: functional
T5 sequence (P9WHJ3 whole entry): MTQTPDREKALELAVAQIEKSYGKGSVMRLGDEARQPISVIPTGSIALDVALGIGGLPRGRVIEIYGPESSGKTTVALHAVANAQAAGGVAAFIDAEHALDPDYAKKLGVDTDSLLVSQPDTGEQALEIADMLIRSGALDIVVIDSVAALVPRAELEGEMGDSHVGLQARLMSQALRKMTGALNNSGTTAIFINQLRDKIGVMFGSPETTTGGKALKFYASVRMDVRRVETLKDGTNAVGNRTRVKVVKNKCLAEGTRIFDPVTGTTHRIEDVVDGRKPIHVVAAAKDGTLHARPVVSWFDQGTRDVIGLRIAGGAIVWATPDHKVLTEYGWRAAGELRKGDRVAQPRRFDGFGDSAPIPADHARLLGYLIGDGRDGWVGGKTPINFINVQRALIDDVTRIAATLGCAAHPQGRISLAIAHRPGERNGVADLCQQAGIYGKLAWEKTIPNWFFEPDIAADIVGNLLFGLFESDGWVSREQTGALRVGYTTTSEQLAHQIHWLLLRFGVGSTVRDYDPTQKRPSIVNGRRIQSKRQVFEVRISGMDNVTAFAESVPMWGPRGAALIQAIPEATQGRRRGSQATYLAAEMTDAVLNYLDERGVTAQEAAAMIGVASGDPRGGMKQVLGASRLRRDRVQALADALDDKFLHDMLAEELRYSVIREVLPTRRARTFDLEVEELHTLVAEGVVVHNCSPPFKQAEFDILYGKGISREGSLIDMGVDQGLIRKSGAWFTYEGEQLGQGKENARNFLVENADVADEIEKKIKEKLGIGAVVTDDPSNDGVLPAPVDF

CCOC(=O)C1(CCOc2ccccc2)CCN(Cc2cc(OC)ccc2OC)CC1
EC50 [1]: 3.76 µM (active)

C[n+]1cccc(/C=N/NC(=O)CC23CC4CC(CC(C4)C2)C3)c1
IC50 [2]: 3.28 µM (active)
IC50 [3]: > 100 µM (inactive)
IC50 [4]: 5.14 µM (active)
IC50 [5]: 3.04 µM (active)

COc1cc(O)ccc1C(=O)CCc1ccc(O)cc1
IC50 (Large T antigen): 13.3 µM (active)

CCc1cc2c(=O)c(-c3nc4ccccc4n3C)coc2c(CN2CCCCC2C)c1O (centres undefined)
IC50 [3]: 15.1 µM (active)
IC50 [4]: 57.8 µM (active)

CC(=O)c1c(COC(=O)c2cccnc2)nc2ccccc2[n+]1[O-]
IC50 [2]: 2.09 µM (active)
IC50 [5]: 1.48 µM (active)

CC(Oc1ccc(F)cc1)C(=O)Nc1cc(S(=O)(=O)N2CCOCC2)ccc1N1CCN(C)CC1 (centres undefined)
IC50 [2]: 8.29 µM (active)
IC50 [5]: 4.91 µM (active)

COc1cc(/C=C2/C(=O)NN(c3ccc(Cl)cc3)C2=O)ccc1OC(=O)c1ccco1
EC50 [6]: > 112 µM (not active)
EC50 [7]: > 112 µM (not active)
IC50 (cells): 16.6 µM (active)
IC50 (Large T antigen): 21.6 µM (active)

CC(C)C[C@H](NC(=O)C1CC(=O)N(c2ccc3c(c2)OCO3)C1)C(=O)NCc1ccco1 (some centres undefined)
IC50 [3]: 20 µM (active)
IC50 [4]: > 100 µM (inactive)

CCN1C(NCCc2cccnc2)=N[C@@H](c2ccccc2)C(C(=O)OC)=C1C
IC50 [3]: > 100 µM (inactive)
IC50 [4]: 12 µM (active)

Fc1ccccc1Sc1ccccc1CNC1=NCCN1
IC50 [2]: 2.77 µM (active)
EC50 [8]: 0.944 µM (active)
IC50 [9]: 4.12 µM (active)
IC50 [5]: 1.35 µM (active)

O=C(NCc1ccco1)c1ccc2c(c1)CCO2
IC50 (Coagulation factor XII): > 50 µM (inactive)

Cc1ccc2c(C)c(C(=O)Nc3nnc(C)s3)oc2c1
IC50 (Coagulation factor XII): > 50 µM (inactive)

O=C1ON=C(c2ccccc2)/C1=C/c1ccc(-c2ccccc2[N+](=O)[O-])o1
EC50 [10]: 42.5 µM (active)
IC50 (Genome polyprotein): 11.6 µM (active)
AC50 [11]: 23.2 µM (active)
EC50 [12]: 21.4 µM (active)
AC50 [13]: 7.21 µM (active)
IC50 (Large T antigen): 52.8 µM (active)

CC/C(=N\NC(=S)NC(C)C)c1ccc(OC(F)F)cc1
IC50 (Coagulation factor XII): > 50 µM (inactive)

N#CCn1c(CCl)nc2ccccc2c1=O
CC50 (Vero): 14.9 µM (active)
AC50 [14]: 80.6 µM (active)
CC50 [15]: 30.8 µM (active)
EC50 (Protein RecA): 7.2 µM (active)
IC50 (Large T antigen): 15.1 µM (active)

Cc1c(C)n(CCC#N)c2ccccc12
IC50 (Coagulation factor XII): > 50 µM (inactive)
